This note sets out measurements from patent publication US9440966B2, “Compounds for treatment of metabolic syndrome” (SJT MOLECULAR RESEARCH, S.L., priority 2011, dated 2016).

Entries after “also recorded” stand apart in the source; their conditions may differ.

In series [1] the test system is normoglycemic rats. The series is described as follows: Oral glucose tolerance test in normoglycemic rats (Examples 27, 28). Format: in vivo, Male Wistar rats. As for the experimental part: Male Wistar rats were utilized provided by Mato Grosso do Sul's Federal University's Biotherium. Until the experiments were carried out, the animals have had free access to feed and water. The room temperature was kept at 22±2° C. and the light/dark cycle was of 12 hours.
The glucose tolerance test is a reference method for the diagnosis of diabetes or glucose intolerance (5).
Distinct rat groups were orally treated, once a day, with 3-(carbohydrazyl-N′-phenylsubstituted)-1-benzosubstituted-β-carbolinic-3-carbohydrazide (compound 7a or ANIS-BZ) at doses: 0.5, 1 or 5 mg/kg or vehicle (control) for 3 days. Similarly, another rat group received metformin (reference drug used for lowering glucose serum levels) in a 300 mg/kg dose, orally, once a day for 3 days. The oral glucose tolerance test was carried out by administering of a glucose solution (2 g/kg body mass). Glycemia was determined at zero time (before oral administering) and at 60 minutes after the glucose overload.
Distinct groups of rats were treated orally, once a day, with N(-ethylamine)-1-benzosubstituted-β-carboline-3-carboxamide (compound 4a or ANIS-NH2) at doses: 0.5, 1 or 5 mg/kg, or vehicle for 3 days. Similarly, another group of rats received metformin in a 300 mg/kg dose orally for 3 days once a day. The oral glucose tolerance test was done under the administration of a glucose solution (2 g/kg body mass). Glycemia will be determined at the zero (before oral administration) time and 60 minutes after glucose overload.

Series [2] relates to SHR hypertensive rats. The experiment in a line: Plasma cholesterol levels test in SHR hypertensive rats. Format: in vivo, Male SHR. As for the experimental part: (§1) Distinct rat groups were orally treated, once a day, with 5 mg/kg of compounds 4a or 5a or 6a during the first 4 days, 10 mg/kg during the next 4 days and 15 mg/kg until the end of the treatment period or vehicle (control) for the same days. Similarly, another rat group received metformin (MET) (reference drug used for lowering glucose serum levels) in a 300 mg/kg dose, orally, from day 1 to the end of the treatment. Plasma cholesterol levels were measured in triplicate 12 hours after drug administration by the cholesterol oxidase/peroxidase method (BioSystems S.A, Barcelona, Spain). Blood samples were obtained by femoral vein punction. This method was chosen because of its noninvasive character, enabling daily measurements with the same rats throughout the entire treatment.
Male SHR were provided by Charles River Laboratories (USA). Until the experiments were carried out, the animals have had free access to feed and water. The room temperature was kept at 22±2° C. and the light/dark cycle was of 12 hours. All procedures were submitted to the Animal Experimentation Ethics Committee.
as §1, with “metformin” for “metformin (MET)”, “Blood pressure was” for “Plasma cholesterol levels were”, “4” for “12”, “administration in warmed warmed, restrained, conscious rats” for “administration”, “tail-cuff” for “cholesterol oxidase/peroxidase”, “with a computerized oscillometric system recorder (Nyprem, Cibertec).” for “(BioSystems S.A, Barcelona, Spain). Blood samples were obtained by femoral vein punction.”

Series [3] relates to Drosophila melanogaster (Oregon-R strain). The series is described as follows: Toxicology study: larva-to-adult viability and development time. Conditions: in vivo. An excerpt:
The purpose of this study was to test and compare the potential toxic effects of compounds 5a, 6a and 7a on the larva-to-adult viability and development time in a Drosophila melanogaster (Oregon-R) flies. These studies have a relevant predictive role with the aim to anticipate possible adverse toxicological effects that may happen during preclinical studies with animal, preferably mammals. In addition, the data provided are highly quantitative.
Drosophila melanogaster (Oregon-R) flies were obtained by the University of the Balearic Islands (Spain). […] The larvae were seeded on standard food supplemented with the appropriate dose of compounds tested. Each compound was tested at 1, 10, 100, 1000 and 2000 μg/ml dissolved in standard food.
Fly adults were transferred from the serial transfer system to bottles with fresh food for 24 h. Adults 5 days old were placed on egg collecting devices (layers) containing a mixture of agar, water, acetic acid, and ethyl alcohol, with a drop of active yeast on it. Every 2 h., the layer glasses were changed, in this way, the eggs of a glass have similar age, with a maximum difference of 2 h. among them. The glasses of the layers were kept at 25° C. for at least 22 h. in Petri dishes until larvae hatched. Fifty larvae were picked with a lancet under a stereoscopic microscope and were seeded into 10×2 cm vials with 5 ml food. Vials were supplemented with 4a, 5a and 7a at 1, 10 and 100 μg/ml. As positive control we used cupric acetate (toxic) at 350 μg/ml.
The number of adult flies which emerged from each vial was counted daily until the exhaustion of the culture. The parameters studied were the larvae-to-adult viability (V) and development time.
Viability is expressed as V=NA/NL, where NL is the input number of larvae ([…] in our case) and NA the output number of adults emerging from these NL larvae. Development time was measured in days by the formula DT=ΣNidi/ΣNi where Ni is the number of flies emerging on the day di after the larvae were placed in the medium.
The data are expressed as the mean±SEM values from 3 independent experiments involving triplicate vials at the number of flies indicated.

Series [4] relates to female Swiss mice. The series is described as follows: Acute oral toxicology study in a mice model. Format: in vivo. Conditions: oral 2000 mg/kg single dose, observation for 14 days. The method, then:
The experiments were conducted using female Swiss mice (20-30 g), housed under a 12-h light-dark cycle, with controlled humidity (60-80%), and temperature (22±1° C.). Food and water were freely available to the mice.
Female mice (n=6) were orally (2000 mg/kg) administered with a single dose of 4a, 5a, and 7a for the observation of acute signs of toxicity until 14 days. […] The observations comprised the behavior and manifestations of the toxic symptoms, and were carried out according to the Guidelines of the Organization for Economic Cooperation and Development (OECD, 2008).
All compounds were dissolved in sterile saline and were administered by oral gavage to mice based in the weight, for example 20 g received 20 μL.
The data are expressed as mean±S.E.M. of experiments. Statistical significance was determined through one-way analysis of variances (ANOVA), followed by either Newman-Keuls test. A p<0.05 was considered statistically significant. Graphs were drawn and statistical analysis was carried out using GraphPad Prism version 5.00 for Windows (GraphPad Software, San Diego, Calif., USA).

Series [5] relates to normoglycemic rats. The experiment in a line: Oral glucose tolerance test in normoglycemic rats (Examples 36, 37). Format: in vivo, Male Wistar rats. To be noted: metformin 300 mg/kg orally daily. As for the experimental part:
Male Wistar rats (200-300 g) were utilized provided by Mato Grosso do Sul's Federal University's Biotherium. Until the experiments were carried out, the animals have had free access to feed and water. The room temperature was kept at 22±2° C. with controlled humidity (60-80%) and the light/dark cycle was of 12 hours.
The glucose tolerance test was evaluated as described by Al-Awaki et al (6).
Rats were randomly divided into […] groups of four animals that were control group that received only a solution of saline, compound 23b group (10 mg/kg), compound 21a group (10 mg/kg) and metformin 300 mg/kg group. Respective treatments were made orally and daily for five days.
(§2) On day 1, 3, and 5, different groups of rats were fasted overnight (at least 12 h) prior to the test, but with given water ad libitum. The oral glucose tolerance test was carried out by administering of a glucose solution (2 g/kg body weight) according to Al-Awadi et al (6). Glycemia was determined in blood samples collected from the tail vein at −30 minutes (just before the administration of the oral extract) time 0 (prior to the glucose overload) and at 60 minutes after the glucose overload. Serum glucose concentrations were measured by the glucose oxidase method (7) using commercial kit (Accuchek-performa (Roche)) according to the manufacture's instructions.
Male Wistar rats (200-300 g) were utilized provided by Mato Grosso do Sul's Federal University's Biotherium. Until the experiments were carried out, the animals have had free access to feed and water. The room temperature was kept at 22±2° C. with controlled humidity (60-80%) and the light/dark cycle was of 12 hours. All procedures were submitted to the Animal Experimentation Ethics Committee.
The compounds 21b, 23a and 23d were diluted firstly in 20 μl of ethanol and after in 980 μl de saline. Compounds 21e, 23e and 26b were dissolved in sterile saline and were administered by oral gavage to rats based in the weight, for example 200 g received 200 μL.
54 rats were randomly divided into […] groups of five-eight animals that were control group (n=8) that received only a solution of vehicle, compound 21b group (n=5) (10 mg/kg), compound 21e group (n=5) (10 mg/kg), compound 23e group (n=5) (10 mg/kg), compound 23a group (n=5) (10 mg/kg), compound 23d group (n=5) (10 mg/kg), compound 26b group (n=5) (10 mg/kg) and metformin (n=6) 300 mg/kg group. Respective treatments were made orally and daily for five days.
as §2, with “manufactures's” for “manufacture's”

The subject of series [6] is SHR hypertensive rats. The series is described as follows: Systolic blood pressure test in SHR hypertensive rats. Format: in vivo, Male Spontaneously Hypertensive Rats (SHR). Conditions: metformin 300 mg/kg oral. The method, then:
Male Spontaneously Hypertensive Rats (SHR) were provided by Charles River Laboratories (USA). Until the experiments were carried out, the animals have had free access to feed and water. The room temperature was kept at 22±2° C. and the light/dark cycle was of 12 hours. All procedures were submitted to the Animal Experimentation Ethics Committee.
Distinct rat groups were orally treated, once a day, with 5 mg/kg of compounds 4a or 5a or 6a during the first 4 days, 10 mg/kg during the next 4 days and 15 mg/kg until the end of the treatment period or vehicle (control) for the same days. Similarly, another rat group received metformin (MET) (reference drug used for lowering glucose serum levels) in a 300 mg/kg dose, orally, from day 1 to the end of the treatment. Plasma cholesterol levels were measured in triplicate 12 hours after drug administration by the cholesterol oxidase/peroxidase method (BioSystems S.A, Barcelona, Spain). […]
Distinct rat groups were orally treated, once a day, with 5 mg/kg of compounds 4a or 5a or 6a during the first 4 days, 10 mg/kg during the next 4 days and 15 mg/kg until the end of the treatment period or vehicle (control) for the same days. […] Blood pressure was measured in triplicate 4 hours after drug administration in warmed warmed, restrained, conscious rats by the tail-cuff method with a computerized oscillometric system recorder (Nyprem, Cibertec). […]

Series [7] relates to SHR hypertensive rats. The series is described as follows: Blood glucose levels test in SHR hypertensive rats. To be noted: Metformin 300 mg/kg for 23 days. Format: in vivo, Male SHR. The method, then: Male SHR were provided by Charles River Laboratories (USA). Until the experiments were carried out, the animals have had free access to feed and water. The food was removed 12 h before glucose determination. The room temperature was kept at 22±2° C. and the light/dark cycle was of 12 hours. All procedures were submitted to the Animal Experimentation Ethics Committee.
Distinct rat groups were orally treated, once a day, with 5 mg/kg of compound 4a during the first 4 days, 10 mg/kg during the next 4 days and 15 mg/kg until the end of the treatment period or vehicle (control) for the same days. Similarly, another rat group received metformin in a 300 mg/kg dose, orally, from day 1 to the end of the treatment. Blood glucose levels were measured in triplicate 12 hours after drug administration with the aid of a GLUCOCARD TM G meter, GT-1810. Results were compared with the effect of metformin […]. Blood samples were obtained by femoral vein punction. This method was chosen because of its noninvasive character, enabling daily measurements with the same rats throughout the entire treatment.

Turning to `COc1ccc(-c2nc(C(=O)N/N=C/c3ccccc3)cc3c2[nH]c2ccccc23)cc1` [Compound 7a, 3-(carbohydrazyl-N′-phenylsubstitute)-1-benzosubstitute-β-carbolinic-3-carbohydrazide], the “glycemic levels of animals that received an oral glucose overload” value in series [1] (after 3 days, 0.5 mg/kg oral once a day, vs control group) was “only the 1 and 5 mg/kg doses reduced statistically significant the glycemic levels”; in series [1] (after 3 days, 1 mg/kg oral once a day, vs control group) it was “reduced statistically significant the glycemic levels”; in series [1] (after 3 days, 5 mg/kg oral once a day, vs control group, 5 mg/kg), “reduces the glycemic levels; also recorded: reduced statistically significant the glycemic levels”; in series [1] (first day, 5 mg/kg oral, vs control group, 60 min after glucose 2 g/kg), “reduces the glycemic levels”. In series [2] (25 days of treatment (15 mg/Kg) oral, effect more pronounced for 5a and 7a), the plasma cholesterol levels result is on record as “inhibition of plasma cholesterol levels”. Further, the “larvae-to-adult viability and development time” value in series [3] is recorded as “not affected”. The “mortality or behavioral disorders (acute signs of toxicity)” value in series [4] is listed as “did not produce mortality or any behavioral disorders”.

As for `CN(C)C(=N)N=C(N)N` [metformin, reference compound], the “glycemic levels of animals that received an oral glucose overload” value is listed as “induces reduction of glycemic levels” in series [1] (after 3 days, metformin 300 mg/kg oral once a day) and “induces reduction of glycemic levels” in series [1] (first day, metformin 300 mg/kg oral). In addition, the results for the “glucose levels in oral glucose tolerance test” value in series [5] (fifth day), in series [5] (first day) and in series [5] (third day) were “reduced the glucose levels”, “significant reduction in glucose levels” and “induces reduction of glycemic levels; also recorded: significant reduction in glucose levels”, respectively. The “inhibitory effect on systolic blood pressure” value in series [6] is reported as “This effect at 5-15 mg/kg is greater than that of metformin”. The plasma cholesterol levels entry in series [2] (25 days, Metformin 300 mg/Kg oral) is on record as “inhibition of plasma cholesterol levels”. In addition, the “effect on blood glucose levels” value in series [7] is listed as “slightly greater effect on blood glucose levels”.
